For orientation: inhibition means the drop in the measured response relative to a control, in per cent. A low value points to a response near the control. As a reminder, the pKa is the pH at which an ionisable group is half protonated. Higher therefore signals a weaker acid or stronger base. One may read the IC50 as the concentration that gives 50% inhibition. A low value points to greater potency.

The text below walks through data of ChEMBL document CHEMBL1145858, “Synthesis and structure-activity studies of novel orally active non-terpenoic 2,3-oxidosqualene cyclase inhibitors” (J Med Chem, 2003).

The target of series [1] is T1, Lanosterol synthase (Homo sapiens) (UniProt P48449).
T1 sequence (whole entry): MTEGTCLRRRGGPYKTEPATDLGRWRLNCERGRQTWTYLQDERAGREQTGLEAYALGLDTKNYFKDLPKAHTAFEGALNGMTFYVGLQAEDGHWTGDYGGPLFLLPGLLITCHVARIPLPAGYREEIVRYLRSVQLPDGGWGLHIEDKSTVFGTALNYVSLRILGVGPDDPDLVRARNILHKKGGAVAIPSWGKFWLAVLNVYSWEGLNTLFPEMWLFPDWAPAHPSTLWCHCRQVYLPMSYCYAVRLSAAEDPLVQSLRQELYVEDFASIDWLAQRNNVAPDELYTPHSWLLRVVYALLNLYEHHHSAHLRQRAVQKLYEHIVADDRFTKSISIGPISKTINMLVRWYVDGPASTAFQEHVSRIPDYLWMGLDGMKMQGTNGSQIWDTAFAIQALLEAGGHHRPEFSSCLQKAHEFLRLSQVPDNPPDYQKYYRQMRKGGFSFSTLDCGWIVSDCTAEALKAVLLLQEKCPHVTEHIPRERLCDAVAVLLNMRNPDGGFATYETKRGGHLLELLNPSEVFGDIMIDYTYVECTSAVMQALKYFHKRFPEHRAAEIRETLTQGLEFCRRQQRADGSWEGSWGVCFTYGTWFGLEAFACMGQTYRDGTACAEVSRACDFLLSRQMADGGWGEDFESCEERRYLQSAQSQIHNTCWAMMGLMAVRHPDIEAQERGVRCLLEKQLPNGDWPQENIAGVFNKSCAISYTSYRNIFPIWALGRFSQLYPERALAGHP
Conditions: at 100 nM.

The test system of series [2] is Cricetinae gen. sp. Nature of the series: […] effect on total plasma cholesterol(TC) level in fat-fed hamsters treated for 10 days at 200 umol/kg/day. Format: functional, Cricetulus griseus.
The subject of series [3] is Cricetinae gen. sp. Nature of the series: […] effect on LDL cholesterol (LDL-C) level in fat-fed hamsters treated for 10 days at 200 umol/kg/day. Format: functional, Cricetulus griseus.
Series [4] addresses T2, Lanosterol synthase (Homo sapiens, UniProt P48449).
T2 sequence (P48449 whole entry): T1 sequence (whole entry)

The target of series [5] is T2, Lanosterol synthase. Nature of the series: In vitro inhibition of human 2,3-oxidosqualene cyclase.

For the compound `C=CCN(C)CCCCCCOc1ccc2c(-c3ccc(Br)cc3)noc2c1`, the inhibition in series [1] worked out at 21%.
Turning to `C=CCN(C)CCCCCCOc1ccc2c(-c3ccc(Br)cc3)nsc2c1.O=C(O)/C=C/C(=O)O`, the TC with Cricetinae gen. sp. [2] is listed as -36%. The LDL-C in the series with Cricetinae gen. sp. [3] is -33%.
For `C=CCN(C)CCCCCCOc1ccc(C(=O)c2ccc(Br)cc2)c(F)c1.O=C(O)/C=C/C(=O)O`, in that order: -41% and -27%.
On to `C=CCN(C)CCCCCCOc1ccc(C(=O)c2ccc(Br)cc2)cc1.O=C(O)/C=C/C(=O)O`, for which the TC in the series on Cricetinae gen. sp. [2] is -27%. This compound yielded a pKa in “physchem” of 8.18. The LDL-C with Cricetinae gen. sp. [3] is listed as -25%.
Consider `C=CCN(C)CCCCCCOc1ccc(C(=O)c2ccc(F)cc2)cc1.Cl`, for which, in the series with Cricetinae gen. sp. [2], the TC was -40%. The same compound registered a half-inhibitory concentration (IC50) at Lanosterol synthase [4] of 6.7 nM. Besides, the LDL-C with Cricetinae gen. sp. [3] is given as -24%.
`Br.C=CCN(C)CCCCCCOc1ccc(C(=O)c2ccccc2)cc1` returned a half-inhibitory concentration (IC50) against Lanosterol synthase [4] of 22.5 nM. For the same compound, the LDL-C with Cricetinae gen. sp. [3] is -12%.
For `C=CCN(C)CCCCCCOc1ccc2c(-c3ccc(Br)cc3)csc2c1`, the IC50 against Lanosterol synthase [4] was found to be 5.6 nM. This counts as single-digit nanomolar.
`C=CCN(C)CCCCCCOc1ccc2c(-c3ccc(Br)cc3)nccc2c1.Cl`: the LDL-C in the series on Cricetinae gen. sp. [3] is -14%.
`CN(CCCO)CCCCCCOc1ccc(C(=O)c2ccc(Br)cc2)cc1` gave a pKa in “physchem” of 9.05. Further, at Lanosterol synthase [4], the 50% inhibitory concentration (IC50) is 15.7 nM.
In the case of `C=CCN(C)CCCCCCOc1ccc(C(=O)c2ccc(Br)cc2)cn1`, at Lanosterol synthase [4], the midpoint of inhibition, the IC50, lay at 8.7 nM. That is a single-digit nanomolar value.
`C=CCN(C)CCCCCCOc1ccc(C(=O)c2ccc([N+](=O)[O-])cc2)cc1`: on Lanosterol synthase [5], inhibition was half-maximal at 1.9 nM (IC50).
Consider `C=CCN(C)CCCCCCOc1ccc(C(=O)c2ccc(Br)cc2)c(SC)c1`, for which the midpoint of inhibition against Lanosterol synthase [4], the IC50, lay at 6.2 nM.
In the case of `C=CCN(C)CCCCCCOc1ccc2c(c1)CON=C2c1ccc(Br)cc1.O=C(O)/C=C/C(=O)O`, in the series with Cricetinae gen. sp. [3], the LDL-C is reported as -3%.
Take `C=CCN(C)CCCCCCOc1ccc(C(=O)c2ccc(Br)cc2)c(OC)c1`: at Lanosterol synthase [4], the IC50 worked out at 4.6 nM.
Compound `C=CCN(C)CCCCCCOc1ccc(-c2nsc3cc(Br)ccc23)cc1` yielded an inhibition in series [1] of 5%.
At Lanosterol synthase [4], `C=CCN(C)CCCCCCOc1ccc2c(c1)CCN=C2c1ccc(Br)cc1` came in with a 50% inhibitory concentration (IC50) of 7.9 nM.
Consider `C=CCN(C)CCCCCCOc1ccc(C(=O)c2ccc(Br)cc2)c(O)c1`, for which the IC50 against Lanosterol synthase [4] came out at 6.3 nM.
Still for that read-out and setting: in the case of `C=CCN(C)CCCCCCOc1ccc(C(=O)c2ccc(Br)cc2)c(NC)c1` it was 4.1 nM.
For `C=CCN(C)CCCCCCOc1ccc2c(c1)OCC=C2c1ccc(Br)cc1`, the IC50 against Lanosterol synthase [4] worked out at 11.4 nM.
The compound `CN(CCCCCCOc1ccc(C(=O)c2ccc(Br)cc2)cc1)CC1CC1` yielded a pKa in “physchem” of 9.37.
`C=CCN(C)CCCCCCOc1ccc2c(-c3ccc(Br)cc3)coc2c1`: the inhibition in series [1] was found to be 14%.
As to `CN(CCCCCCOc1ccc(C(=O)c2ccc(Br)cc2)cc1)C1CC1`, the pKa in “physchem” stood at 7.48. In addition, the concentration for half-maximal inhibition (IC50) at Lanosterol synthase [4] came out at 35.3 nM.
Turning to `C=CCN(C)CCCCCCOc1ccc2c(c1)S(=O)(=O)N=C2c1ccc(Br)cc1`, half-maximal inhibition against Lanosterol synthase [4] (IC50) was put at 7.8 nM.
